Test results from patent US7109338B2, “1,2-disubstituted 1,4-dihydro-4-oxoquinoline compounds” (priority 1999, dated 2006).
≈ marks a conversion by molar mass, not a printed value.

Columns and labels:
[1] = tested on: Poliovirus type 1 (Polio 1, Sabin); assay: microbe, parasite or virus in culture; format: cell-based; details: for IC50: Enterovirus C, HeLa S3, read-out: IC50 Polio 1
[2] = tested on: echovirus type 11 (Echo 11, Gregory); assay: In vitro anti-picornavirus activity (MTT), Echo 11; format: cell-based; details: HeLa-S3 cells, MTT method, 37° C.; for IC50: Enterovirus B
[3] = tested on: coxsackievirus type A7 (CA7); assay: In vitro anti-picornavirus activity (MTT), CA7; format: cell-based; details: HeLa-S3 cells, MTT method, 37° C.; for IC50: Coxsackievirus
[4] = tested on: coxsackievirus type B4 (CB4,JVB); assay: In vitro anti-picornavirus activity (MTT), CB4; format: cell-based; details: HeLa cells, MTT method, 37° C.; for IC50: Coxsackievirus
[5] = tested on: HRV1A (E28); assay: Anti-rhinovirus activity (MTT), HRV1A; format: cell-based, human rhinovirus; parameters: Anti-Rhinovirus activity, HRV1A: unit not given here; details: for IC50: Human rhinovirus sp., HeLa, read-out: IC50 HRV 1A
[6] = tested on: human rhinovirus type 1B (HRV 1B, B632); assay: Anti-rhinovirus activity (MTT), HRV1B; format: cell-based; parameters: Anti-Rhinovirus activity, HRV1B: unit not given here; details: for IC50: Human rhinovirus sp., read-out: IC50 HRV1B
[7] = tested on: HRV 2 (HGP); assay: Anti-rhinovirus activity (MTT), HRV2; format: cell-based, human rhinovirus; parameters: Anti-Rhinovirus activity, HRV2: unit not given here; details: for IC50: Human rhinovirus sp., read-out: IC50 HRV2
[8] = tested on: HRV14 (1059); assay: Anti-rhinovirus activity (MTT), HRV14; format: cell-based, human rhinovirus; parameters: Anti-Rhinovirus activity, HRV14: unit not given here; details: for IC50: Human rhinovirus sp., read-out: IC50 HRV 14
[9] = tested on: HRV 89 (41617-Gallo); assay: Anti-rhinovirus activity (MTT), HRV89; format: cell-based, human rhinovirus; parameters: Anti-Rhinovirus activity, HRV89: unit not given here; details: for IC50: Human rhinovirus sp., read-out: IC50 HRV89
[10] = tested on: HRV3(FEB); assay: Anti-rhinovirus spectrum (MTT), HRV3; format: cell-based, human rhinovirus; parameters: Anti-Rhinovirus activity, HRV3: unit not given here; details: HRV3
[11] = tested on: HRV5; assay: Anti-rhinovirus spectrum (MTT), HRV5; format: cell-based, human rhinovirus; parameters: Anti-Rhinovirus activity, HRV5: unit not given here; details: HRV5
[12] = tested on: HRV8(MRH); assay: Anti-rhinovirus spectrum (MTT), HRV8; format: cell-based, human rhinovirus; parameters: Anti-Rhinovirus activity, HRV8: unit not given here; details: HRV8
[13] = tested on: HRV10 (204-CV14); assay: Anti-rhinovirus spectrum (MTT), HRV10; format: cell-based, human rhinovirus; parameters: Anti-Rhinovirus activity, HRV10: unit not given here; details: HRV10
[14] = tested on: HRV13 (353); assay: Anti-rhinovirus spectrum (MTT), HRV13; format: cell-based, human rhinovirus; parameters: Anti-Rhinovirus activity, HRV13: unit not given here; details: HRV13
[15] = tested on: HRV16 (11757); assay: Anti-rhinovirus spectrum (MTT), HRV16; format: cell-based, human rhinovirus; parameters: Anti-Rhinovirus activity, HRV16: unit not given here; details: HRV16
[16] = tested on: HRV21 (47); assay: Anti-rhinovirus spectrum (MTT), HRV21; format: cell-based, human rhinovirus; parameters: Anti-Rhinovirus activity, HRV21: unit not given here; details: HRV21
[17] = tested on: HRV29 (5582); assay: Anti-rhinovirus spectrum (MTT), HRV29; format: cell-based, human rhinovirus; parameters: Anti-Rhinovirus activity, HRV29: unit not given here; details: HRV29
[18] = tested on: HRV31 (41F); assay: Anti-rhinovirus spectrum (MTT), HRV31; format: cell-based, human rhinovirus; parameters: Anti-Rhinovirus activity, HRV31: unit not given here; details: HRV31
[19] = tested on: HRV32 (363); assay: Anti-rhinovirus spectrum (MTT), HRV32; format: cell-based, human rhinovirus; parameters: Anti-Rhinovirus activity, HRV32: unit not given here; details: HRV32
[20] = tested on: HRV33 (1200); assay: Anti-rhinovirus spectrum (MTT), HRV33; format: cell-based, human rhinovirus; parameters: Anti-Rhinovirus activity, HRV33: unit not given here; details: HRV33
[21] = tested on: HRV36 (342H); assay: Anti-rhinovirus spectrum (MTT), HRV36; format: cell-based, human rhinovirus; parameters: Anti-Rhinovirus activity, HRV36: unit not given here; details: HRV36
[22] = tested on: HRV39 (209); assay: Anti-rhinovirus spectrum (MTT), HRV39; format: cell-based, human rhinovirus; parameters: Anti-Rhinovirus activity, HRV39: unit not given here; details: HRV39
[23] = tested on: HRV41 (56110); assay: Anti-rhinovirus spectrum (MTT), HRV41; format: cell-based, human rhinovirus; parameters: Anti-Rhinovirus activity, HRV41: unit not given here; details: HRV41
[24] = tested on: HRV50(A2#58); assay: Anti-rhinovirus spectrum (MTT), HRV50; format: cell-based, human rhinovirus; parameters: Anti-Rhinovirus activity, HRV50: unit not given here; details: HRV50
[25] = tested on: HRV61 (6669-CV39); assay: Anti-rhinovirus spectrum (MTT), HRV61; format: cell-based, human rhinovirus; parameters: Anti-Rhinovirus activity, HRV61: unit not given here; details: HRV61
[26] = tested on: clinical isolate (89229T); assay: microbe, parasite or virus in culture; format: cell-based, human rhinovirus; parameters: Anti-Rhinovirus activity, Clinical isolated strain: unit not given here; details: Clinical isolated strain
[27] = tested on: HeLa cells; assay: Cytotoxicity (MTT, without virus), HeLa; details: HeLa, no virus, incubated for 4 days
[28] = tested on: HeLa-S3 cells; assay: Cytotoxicity (MTT, without virus), HeLa-S3; details: HeLa-S3, no virus, incubated for 4 days
[29] = tested on: HeLa (Ohio strain)cells; assay: Cytotoxicity (MTT, without virus), HeLa(Ohio); details: HeLa(Ohio), no virus, incubated for 4 days
[30] = Cytotoxicity (MTT, without virus), HeLa; details: human, HeLa cells (uninfected)
[31] = Cytotoxicity (MTT, without virus), HeLa-S3; details: human, HeLa-S3 cells (uninfected)
[32] = Cytotoxicity (MTT, without virus), HeLa(Ohio); details: human, HeLa (Ohio strain) cells (uninfected)
[33] = HeLa (Ohio strain) cells, MTT method, 33° C.
[34] = HRV1B, HeLa (Ohio strain) cells, MTT method, 33° C.
[35] = HRV2, HeLa (Ohio strain) cells, MTT method, 33° C.
[36] = HRV14, HeLa (Ohio strain) cells, MTT method, 33° C.
[37] = HRV89, HeLa (Ohio strain) cells, MTT method, 33° C.

In the case of `CCn1c2c(c(=O)c3cc(C(C)C)ccc31)Cc1cc(OC)c(OC)cc1-2` [Compound B22], the “IC50 Polio 1” value [1] is reported as 0.54 µg/mL (≈ 1.49 µM), the “IC50 Echo 11” value [2] is reported as 0.39 µg/mL (≈ 1.07 µM) and the “IC50 CA7” value [3] is reported as 1.9 µg/mL (≈ 5.23 µM). The “IC50 CB4” value [4] was 1.3 µg/mL (≈ 3.58 µM), the “Anti-Rhinovirus activity, HRV1A” value ([5]; HRV1A) was greater than 5.9 and the “IC50 HRV 1A” value [5, 33] was greater than 5.9 µg/mL. The “Anti-Rhinovirus activity, HRV1B” value ([6]; HRV1B) was 0.44, the “IC50 HRV1B” value [6, 33] was 0.44 µg/mL (≈ 1.21 µM) and the “Anti-Rhinovirus activity, HRV2” value ([7]; HRV2) was 0.50. For the same compound, the “IC50 HRV2” value [7, 33] was 0.55 µg/mL (≈ 1.51 µM), the “Anti-Rhinovirus activity, HRV14” value ([8]; HRV14) was 0.86 and the “IC50 HRV 14” value [8, 33] was 0.86 µg/mL (≈ 2.37 µM). The “Anti-Rhinovirus activity, HRV89” value ([9]; HRV89) was 0.36, the “IC50 HRV89” value [9, 33] was 0.36 µg/mL (≈ 0.99 µM) and the “Anti-Rhinovirus activity, HRV3” value [10] was 0.97. The “Anti-Rhinovirus activity, HRV5” value [11] was 0.43, the “Anti-Rhinovirus activity, HRV8” value [12] was 0.46 and the “Anti-Rhinovirus activity, HRV10” value [13] was 0.53. For the same compound, the “Anti-Rhinovirus activity, HRV13” value [14] was 0.13, the “Anti-Rhinovirus activity, HRV16” value [15] was 1.2 and the “Anti-Rhinovirus activity, HRV21” value [16] was 0.18. The “Anti-Rhinovirus activity, HRV29” value [17] was 0.56, the “Anti-Rhinovirus activity, HRV31” value [18] was 0.14 and the “Anti-Rhinovirus activity, HRV32” value [19] was 0.19. For the same compound, the “Anti-Rhinovirus activity, HRV33” value [20] was 0.16, the “Anti-Rhinovirus activity, HRV36” value [21] was 0.25 and the “Anti-Rhinovirus activity, HRV39” value [22] was 0.46. The “Anti-Rhinovirus activity, HRV41” value [23] was 0.14, the “Anti-Rhinovirus activity, HRV50” value [24] was 0.17 and the “Anti-Rhinovirus activity, HRV61” value [25] was 0.34. For the same compound, the “Anti-Rhinovirus activity, Clinical isolated strain” value [26] was 0.43, the “Cytotoxicity CC50 HeLa” value [27] was greater than 10 µg/mL and the “Cytotoxicity CC50 HeLa-S3” value [28] was greater than 10 µg/mL. The “Cytotoxicity CC50 HeLa(Ohio)” value [29] was greater than 10 µg/mL.

In the case of `CCn1c2c(c(=O)c3cc(C(C)C)ccc31)Cc1ccsc1-2` [Compound D50, 10-Ethyl-7-isopropyl-5,10-dihydro-4H-thieno[3′,2′:4,5]cyclopenta[1,2-b]quinolin-5-one], the IC50 [1] is reported as 0.64 µg/mL (≈ 2.07 µM), the IC50 [2] is reported as 0.27 µg/mL (≈ 0.873 µM) and the IC50 [3] is reported as 1.9 µg/mL (≈ 6.14 µM). It also gave an IC50 [4] of 0.82 µg/mL (≈ 2.65 µM), an IC50 ([5]; HRV1A) of 2.2 µg/mL (≈ 7.11 µM) and an IC50 [6, 34] of 0.25 µg/mL (≈ 0.808 µM). The IC50 [7, 35] was 0.2 µg/mL (≈ 0.646 µM), the IC50 [8, 36] was 1.3 µg/mL (≈ 4.2 µM) and the IC50 [9, 37] was 0.41 µg/mL (≈ 1.32 µM). For the same compound, the melting point was 168 to 169 °C, the CC50 at 4 days [30] was 7.8 µg/mL (≈ 25.2 µM) and the CC50 at 4 days [31] was greater than 10 µg/mL. The CC50 at 4 days [32] was greater than 10 µg/mL.

`CCn1c2c(c(=O)c3cc(C(C)C)ccc31)Cc1cc(C)sc1-2` [Compound D51, 10-Ethyl-7-isopropyl-2-methyl-5,10-dihydro-4H-thieno[3′,2′:4,5]cyclopenta[1,2-b]quinolin-5-one] showed an IC50 [1] of 0.28 µg/mL (≈ 0.866 µM), an IC50 [2] of 0.21 µg/mL (≈ 0.649 µM) and an IC50 [3] of 1.1 µg/mL (≈ 3.4 µM). It also gave an IC50 [4] of 0.72 µg/mL (≈ 2.23 µM), an IC50 ([5]; HRV1A) of 3.1 µg/mL (≈ 9.58 µM) and an IC50 [6, 34] of 0.59 µg/mL (≈ 1.82 µM). For the same compound, the IC50 [7, 35] was 0.27 µg/mL (≈ 0.835 µM), the IC50 [8, 36] was 0.82 µg/mL (≈ 2.54 µM) and the IC50 [9, 37] was 0.35 µg/mL (≈ 1.08 µM). For the same compound, the CC50 at 4 days [30] was greater than 5 µg/mL, the CC50 at 4 days [31] was greater than 5 µg/mL and the CC50 at 4 days [32] was greater than 5 µg/mL.

In the case of `CCn1c2c(c(=O)c3cc(C(C)C)ccc31)Cc1c(C)csc1-2` [Compound D52, 10-Ethyl-7-isopropyl-3-methyl-5,10-dihydro-4H-thieno[3′,2′:4,5]cyclopenta[1,2-b]quinolin-5-one], the IC50 [1] is reported as 1 µg/mL (≈ 3.09 µM), the IC50 [2] is reported as 0.55 µg/mL (≈ 1.7 µM) and the IC50 [3] is reported as greater than 5 µg/mL. For the same compound, the IC50 [4] was 3 µg/mL (≈ 9.27 µM), the IC50 ([5]; HRV1A) was 3.1 µg/mL (≈ 9.58 µM) and the IC50 [6, 34] was 0.89 µg/mL (≈ 2.75 µM). It also gave an IC50 [7, 35] of 0.86 µg/mL (≈ 2.66 µM), an IC50 [8, 36] of 1.1 µg/mL (≈ 3.4 µM) and an IC50 [9, 37] of 0.85 µg/mL (≈ 2.63 µM). The melting point was 195 °C (dec.), the CC50 at 4 days [30] was greater than 5 µg/mL and the CC50 at 4 days [31] was greater than 5 µg/mL. It also gave a CC50 at 4 days [32] greater than 5 µg/mL.

`CCn1c2c(c(=O)c3cc(C(C)C)ccc31)Cc1c-2ccn1C` [Compound D53, 4-Ethyl-7-isopropyl-1-methyl-4,9-dihydro-10H-pyrrolo[2′,3′:4,5]cyclopenta[1,2-b]quinolin-9-one] showed an IC50 [1] of 1.8 µg/mL (≈ 5.87 µM), an IC50 [2] of 0.68 µg/mL (≈ 2.22 µM) and an IC50 [3] greater than 10 µg/mL. The IC50 [4] was greater than 3.3 µg/mL, the IC50 ([5]; HRV1A) was greater than 10 µg/mL and the IC50 [6, 34] was 1.6 µg/mL (≈ 5.22 µM). For the same compound, the IC50 [7, 35] was 0.91 µg/mL (≈ 2.97 µM), the IC50 [8, 36] was 2.3 µg/mL (≈ 7.51 µM) and the IC50 [9, 37] was 1.4 µg/mL (≈ 4.57 µM). It also gave a melting point of 91 to 93 °C, a CC50 at 4 days [30] greater than 10 µg/mL and a CC50 at 4 days [31] greater than 10 µg/mL. It also gave a CC50 at 4 days [32] greater than 10 µg/mL.
